In PMC10303200 (ACS Central Science, 2023):
Where “and” joins values, the source holds several entries; their conditions need not be identical. Equal values may be shown once.

How the values were obtained:
Type in all cases: binding
[1] = molecular target: T1, GAL-3C (Homo sapiens, UniProt P17931); assay: COIN-nMS, global fit over several glycan concentrations, 200 mM ammonium acetate, pH 6.9, 25 °C.; design: gene LGALS3; C-terminal carbohydrate recognition domain fragment, residues 107-250; settings: SD; read-out: Kd (COIN-nMS, global fit), Table S2
T1 sequence (P17931 107-250): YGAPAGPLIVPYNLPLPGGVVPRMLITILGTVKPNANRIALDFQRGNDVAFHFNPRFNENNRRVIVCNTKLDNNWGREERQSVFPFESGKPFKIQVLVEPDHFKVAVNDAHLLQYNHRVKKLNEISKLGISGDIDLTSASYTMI

[2] = molecular target: T1, GAL-3C; assay: COIN-nMS (slow mixing in nanoESI emitter, fit of eq 12) at one glycan concentration, 200 mM ammonium acetate, pH 6.9, 25 °C.; design: gene LGALS3; C-terminal carbohydrate recognition domain fragment, residues 107-250; settings: SD; read-out: Kd (COIN-nMS, individual experiments), Table S2
[3] = molecular target: T1, GAL-3C; assay: Literature reference values quoted in the results table, conditions not restated.; design: gene LGALS3; C-terminal carbohydrate recognition domain fragment, residues 107-250; settings: SD; read-out: Kd (Literature), Table S2; cited from earlier work
[4] = molecular target: T1, GAL-3C; assay: Direct native ESI-MS at known concentrations with single glycans, 200 mM ammonium acetate, pH 6.9, 25 °C.; design: gene LGALS3; C-terminal carbohydrate recognition domain fragment, residues 107-250; settings: SD; read-out: Kd (nMS), Table S2
[5] = molecular target: T1, GAL-3C; assay: COIN-nMS with a mixture of ten glycans (G2, G5-G13), 200 mM ammonium acetate, pH 6.9.; design: gene LGALS3; C-terminal carbohydrate recognition domain fragment, residues 107-250; settings: SD, n = 8; read-out: Kd (COIN-nMS), Table S3
[6] = molecular target: T2, GAL-7 (Homo sapiens, UniProt P47929); assay: COIN-nMS of the GAL-7 homodimer with a mixture of ten glycans (G2, G5-G13), 200 mM ammonium acetate, pH 6.9.; settings: SD, n = 8; read-out: Kd (COIN-nMS), Table S4
T2 construct: gene LGALS7; homodimer (monomer MW 14.94 kDa)
T2 sequence (P47929 whole entry): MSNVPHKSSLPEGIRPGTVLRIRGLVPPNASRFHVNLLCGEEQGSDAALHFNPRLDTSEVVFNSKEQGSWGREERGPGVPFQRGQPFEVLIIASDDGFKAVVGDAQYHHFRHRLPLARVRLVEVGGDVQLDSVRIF

[7] = molecular target: T1, GAL-3C; assay: Direct native ESI-MS with a mixture of ten glycans (G2, G5-G13), 200 mM ammonium acetate, pH 6.9.; design: gene LGALS3; C-terminal carbohydrate recognition domain fragment, residues 107-250; settings: SD, n = 8; read-out: Kd (nMS), Table S3
[8] = molecular target: T3, DC-SIGN CRD (Homo sapiens, UniProt Q9NNX6); assay: Direct native ESI-MS (submicron emitters) with a mixture of ten glycans (G2, G5, G10, G14-G20), 200 mM ammonium acetate with 2.5 mM calcium salt, pH 7.4.; design: gene CD209; carbohydrate recognition domain, residues 250-404, MW 17 794 Da; settings: SD, n = 6; read-out: Kd (nMS), Table S5
T3 sequence (Q9NNX6 250-404): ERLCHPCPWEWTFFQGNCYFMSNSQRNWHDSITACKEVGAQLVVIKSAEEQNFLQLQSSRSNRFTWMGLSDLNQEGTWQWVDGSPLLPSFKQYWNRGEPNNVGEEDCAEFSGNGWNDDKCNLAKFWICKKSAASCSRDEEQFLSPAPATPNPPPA

[9] = molecular target: T2, GAL-7; assay: Direct native ESI-MS of the GAL-7 homodimer with a mixture of ten glycans (G2, G5-G13), 200 mM ammonium acetate, pH 6.9.; settings: SD, n = 8; read-out: Kd (nMS), Table S4
[10] = molecular target: T3, DC-SIGN CRD; assay: COIN-nMS (submicron emitters) with a mixture of ten glycans (G2, G5, G10, G14-G20), 200 mM ammonium acetate with 2.5 mM calcium salt, pH 7.4.; design: gene CD209; carbohydrate recognition domain, residues 250-404, MW 17 794 Da; settings: SD, n = 6; read-out: Kd (COIN-nMS), Table S5
[11] = molecular target: T2, GAL-7; assay: Direct native ESI-MS at known concentrations with single glycans, 200 mM ammonium acetate, pH 6.9, 25 °C.; settings: SD; read-out: Kd (nMS), Table S2
[12] = molecular target: T2, GAL-7; assay: COIN-nMS (slow mixing in nanoESI emitter, fit of eq 12) at one glycan concentration, 200 mM ammonium acetate, pH 6.9, 25 °C.; settings: SD; read-out: Kd (COIN-nMS, individual experiments), Table S2
[13] = molecular target: T2, GAL-7; assay: COIN-nMS, global fit over several glycan concentrations, 200 mM ammonium acetate, pH 6.9, 25 °C.; settings: SD; read-out: Kd (COIN-nMS, global fit), Table S2
[14] = molecular target: T4, MAA; assay: COIN-CaR-nMS (collisional release of bound glycan, fit of eq 13) with single purified glycans, 200 mM ammonium acetate, pH 6.9.; settings: SD; read-out: Kd (COIN-CaR-nMS), Table S6
T4 construct: commercial lectin mixture

[15] = molecular target: T4, MAA; assay: Isothermal titration calorimetry, 200 mM ammonium acetate, pH 6.8-6.9, 25 °C.; settings: SD; read-out: Kd (Literature), Table S6, determined by ITC
[16] = molecular target: Sig7-Fc (Homo sapiens, UniProt Q9Y286); assay: COIN-CaR-nMS with purified oligosaccharides listed beside the library glycans, 200 mM ammonium acetate, pH 6.9.; design: gene SIGLEC7; residues 1-345, human IgG1 Fc fusion and C-terminal His6, from CHO cells, MW 150 kDa; settings: SD; read-out: Kd, purified oligosaccharides in Tables S12, S13, S18, S19
Sig7-Fc, sequence (Q9Y286 1-345): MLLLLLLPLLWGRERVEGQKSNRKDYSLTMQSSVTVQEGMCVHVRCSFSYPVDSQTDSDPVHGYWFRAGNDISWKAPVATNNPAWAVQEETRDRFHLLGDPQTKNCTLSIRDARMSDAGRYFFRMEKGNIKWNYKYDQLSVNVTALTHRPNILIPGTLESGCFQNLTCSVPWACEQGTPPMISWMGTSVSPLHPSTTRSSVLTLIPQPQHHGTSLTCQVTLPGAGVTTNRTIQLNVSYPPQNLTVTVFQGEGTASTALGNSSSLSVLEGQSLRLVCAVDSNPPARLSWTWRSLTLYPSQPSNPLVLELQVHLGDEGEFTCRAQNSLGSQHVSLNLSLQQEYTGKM

CC(=O)N[C@H]1C(O)O[C@H](CO)[C@@H](O[C@@H]2O[C@H](CO)[C@H](O)[C@H](O[C@H]3O[C@H](CO)[C@H](O)[C@H](O)[C@H]3O)[C@H]2O[C@@H]2O[C@@H](C)[C@@H](O)[C@@H](O)[C@@H]2O)[C@@H]1O (stereo partly drawn) [G1, α-D-Gal-(1→3)-[α-L-Fuc(1→2)]-β-D-Gal(1→4)-D-GlcNAc]
Kd [1]: 3.8 µM | Kd [2]: 3.2 µM and 3.7 µM and 5.8 µM | Kd [3]: 4.5 µM | Kd [4]: 4.2 µM

C[C@@H]1O[C@@H](O[C@H]2[C@H](O[C@H]3[C@H](O)[C@@H](O)C(O)O[C@@H]3CO)O[C@H](CO)[C@H](O)[C@@H]2O)[C@@H](O)[C@H](O)[C@@H]1O (stereo partly drawn) [G2, α-L-Fuc-(1→2)-β-D-Gal-(1→4)-D-Glc (2'-fucosyllactose)]
Kd [5]: 156 µM | Kd [1]: 23.2 µM | Kd [6]: 241 µM | Kd [2]: 27 µM and 24.8 µM and 28 µM | Kd [7]: 166 µM | Kd [8]: 2100 µM | Kd [9]: 237 µM | Kd [10]: 660 µM | Kd [3]: 47.6 µM | Kd [4]: 26.6 µM

CC(=O)N[C@H]1[C@H](O[C@H]2[C@@H](O)[C@@H](CO)O[C@@H](O[C@H]3[C@H](O[C@@H]4O[C@@H](C)[C@@H](O)[C@@H](O)[C@@H]4O)[C@@H](O)C(O)O[C@@H]3CO)[C@@H]2O)O[C@H](CO)[C@@H](O[C@@H]2O[C@H](CO)[C@H](O)[C@H](O)[C@H]2O)[C@@H]1O[C@@H]1O[C@@H](C)[C@@H](O)[C@@H](O)[C@@H]1O (stereo partly drawn) [G3, Gal-(1→4)-[α-L-Fuc(1→3)]-β-D-GlcNAc-(1→3)-β-D-Gal(1→4)[α-L-Fuc(1→3)]-D-Glc]
Kd [11]: 518 µM | Kd [12]: 524 µM and 507 µM and 537 µM | Kd [13]: 521 µM

CC(=O)N[C@H]1[C@H]([C@H](O)[C@H](O)CO)O[C@@](O[C@H]2[C@@H](O)[C@@H](CO)O[C@@H](O[C@H]3[C@H](O)[C@@H](O)C(O)O[C@@H]3CO)[C@@H]2O)(C(=O)O)C[C@@H]1O (stereo partly drawn) [G22, 3SL, 3'-sialyllactose, α-D-Neu5Ac-(2→3)-β-D-Gal-(1→4)-D-Glc]
Kd [14]: 3.5 µM | Kd [15]: 3.6 µM | Kd [16]: 277 µM
